Measurements reported in patent US12187746B2, “C26-linked rapamycin analogs as mTOR inhibitors” (Revolution Medicines, Inc., priority 2018, dated 2025).

What was measured:
P-Akt (S473) = test: Cell based AlphaLISA assay, inhibition of P-Akt (S473) in MDA-MB-468 cells; details: Homo sapiens, 4 h, 0.017-1,000 nM, two to four hours at 37° C., AlphaLisa SureFire Ultra, read-out: pIC50 for Inhibition of mTORC1 and mTORC2 Substrate Phosphorylation, p-AKT1/2/3-(S473) (converted)
How it was run: (§1)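 mTORC1 and mTORC2 activity in cells tracked through AlphaLISA SureFire Ultra detection of the phosphoproteins after incubation and cell lysis; Alpha signal read in duplicate. IC50 from normalized concentration–response regression with control-based normalization.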

P-P70S6K (T389) = test: Cell based AlphaLISA assay, inhibition of P-P70S6K (T389) in MDA-MB-468 cells; details: Homo sapiens, 4 h, 0.017-1,000 nM, two to four hours at 37° C., AlphaLisa SureFire Ultra, read-out: pIC50 for Inhibition of mTORC1 and mTORC2 Substrate Phosphorylation, p-P70S6K-(T389) (converted)
How it was run: as §1

P-4E-BP1 (T37/46) = test: Cell based AlphaLISA assay, inhibition of P-4E-BP1 (T37/46) in MDA-MB-468 cells; details: Homo sapiens, 4 h, 0.017-1,000 nM, two to four hours at 37° C., AlphaLisa SureFire Ultra, read-out: pIC50 for Inhibition of mTORC1 and mTORC2 Substrate Phosphorylation, p-4E-BP1-(T37/46) (converted)
How it was run: as §1

Compound	IC50 (P-Akt (S473))	IC50 (P-P70S6K (T389))	IC50 (P-4E-BP1 (T37/46))
CO[C@H]1C[C@@H]2CC[C@@H](C)[C@@](O)(O2)C(=O)C(=O)N2CCCC[C@H]2C(=O)O[C@H]([C@H](C)C[C@@H]2CC[C@@H](O)[C@H](OC)C2)C[C@@H](O)[C@H](C)/C=C(\C)[C@@H](O)[C@@H](OC)C(=NOCC(=O)NCc2cnc(N3CCN(C(=O)CCCN4CCN(c5ncc(C(=O)N6CCC(n7nc(-c8ccc9oc(N)nc9c8)c8c(N)ncnc87)CC6)cn5)CC4)CC3)nc2)[C@H](C)C[C@H](C)/C=C/C=C/C=C/1C [Example 66]	> 1000 nM	1 to 10 nM	> 1000 nM
CO[C@H]1C[C@@H]2CC[C@@H](C)[C@@](O)(O2)C(=O)C(=O)N2CCCC[C@H]2C(=O)O[C@H]([C@H](C)C[C@@H]2CC[C@@H](O)[C@H](OC)C2)CC[C@H](C)/C=C(\C)[C@@H](O)[C@@H](OC)C(=NOCC(=O)NCCOCCOCCOCCOCCOCCOCCOCCOCCC(=O)N2CCc3cc(Cn4nc(-c5ccc6oc(N)nc6c5)c5c(N)ncnc54)ccc3C2)[C@H](C)C[C@H](C)/C=C/C=C/C=C/1C [Example 67]	31.6 to 1000 nM	< 1 nM	< 3.16 nM
CO[C@H]1C[C@@H]2CC[C@@H](C)[C@@](O)(O2)C(=O)C(=O)N2CCCC[C@H]2C(=O)O[C@H]([C@H](C)C[C@@H]2CC[C@@H](O)[C@H](OC)C2)C[C@@H](O)[C@H](C)/C=C(\C)[C@@H](O)[C@@H](OC)C(=NOCC(=O)NC2CCN(CC(=O)NCCOCCOCCOCCOCCOCCOCCC(=O)N3CCc4cc(Cn5nc(-c6ccc7oc(N)nc7c6)c6c(N)ncnc65)ccc4C3)CC2)[C@H](C)C[C@H](C)/C=C/C=C/C=C/1C [Example 68]	31.6 to 1000 nM	1 to 10 nM	3.16 to 31.6 nM
CO[C@H]1C[C@@H]2CC[C@@H](C)[C@@](O)(O2)C(=O)C(=O)N2CCCC[C@H]2C(=O)O[C@H]([C@H](C)C[C@@H]2CC[C@@H](O)[C@H](OC)C2)C[C@@H](O)[C@H](C)/C=C(\C)[C@@H](O)[C@@H](OC)C(=NOCC(=O)NCCOCCOCCOCCOCCOCCOCCC(=O)NC2CCN(CC(=O)N3CCc4cc(Cn5nc(-c6ccc7oc(N)nc7c6)c6c(N)ncnc65)ccc4C3)CC2)[C@H](C)C[C@H](C)/C=C/C=C/C=C/1C [Example 69]	> 1000 nM	1 to 10 nM	3.16 to 31.6 nM
CC(C)n1nc(-c2ccc3oc(N)nc3c2)c2c(N)ncnc21 [MLN-128, MLN0128, reference compound]	3.16 to 31.6 nM	1 to 10 nM	3.16 to 31.6 nM
CO[C@H]1C[C@@H]2CC[C@@H](C)[C@@](O)(O2)C(=O)C(=O)N2CCCC[C@H]2C(=O)O[C@H]([C@H](C)C[C@@H]2CC[C@@H](O)[C@H](OC)C2)CC(=O)[C@H](C)/C=C(\C)[C@@H](O)[C@@H](OC)C(=O)[C@H](C)C[C@H](C)/C=C/C=C/C=C/1C [Rapamycin, (3S,6R,7E,9R, 10R, 12R, 14S, 15E, 17E, 19E,21S,23S,26R,27R,34aS)-9, 10, 12, 13, 14,21,22,23,24,25,26,27,32,33,34,34a-hexadecahydro-9,27-dihydroxy-3-[(1R)-2-[(1 S,3 R,4R)-4-hydroxy-3-methoxycyclohexyl]-1-methylethyl]-10,21-dimethoxy-6,8,12,14,20,26-hexamethyl-23,27-epoxy-3H-pyrido[2,1-c][1,4]-oxaazacyclohentriacontine-1,5,11,28,29(4H,6H,31H)-pentone]	> 1000 nM	< 1 nM	> 1000 nM
